The species entered for assay [1] is Homo sapiens. The assay is described as follows: Tested for inhibition of platelet aggregation induced by U-46,619 (U-IPA) in human platelet rich plasma. It is filed as functional. The following applies: read-out: I50.
The species named for assay [2] is Homo sapiens. The experiment in a line: Tested for inhibition of platelet aggregation induced by arachidonic acid (AAIPA) in human platelet rich plasma. The format is functional. The conditions noted are these: read-out: I50.
Another assay concerns the target T1, Thromboxane A2 receptor (Homo sapiens, UniProt P21731).
T1 sequence (P21731 whole entry): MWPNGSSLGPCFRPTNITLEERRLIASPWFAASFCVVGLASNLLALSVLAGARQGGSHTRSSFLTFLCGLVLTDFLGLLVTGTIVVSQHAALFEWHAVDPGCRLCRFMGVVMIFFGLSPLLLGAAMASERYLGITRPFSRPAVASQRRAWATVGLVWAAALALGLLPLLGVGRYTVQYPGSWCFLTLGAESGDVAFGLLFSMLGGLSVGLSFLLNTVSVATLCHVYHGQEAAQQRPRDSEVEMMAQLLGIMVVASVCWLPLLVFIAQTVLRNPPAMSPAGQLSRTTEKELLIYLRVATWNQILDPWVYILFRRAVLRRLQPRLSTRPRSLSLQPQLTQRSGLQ
The experiment in a line: Dissociation constant was determined from radioligand binding studies in human platelet membranes using Thromboxane A2 receptor radioligand [3H]-SQ 29,548. It is filed as cell membranes.

Usually Kd stands for the free concentration of one partner at which half of the binding sites on the other are occupied at equilibrium, for simple one-to-one binding. Lower therefore signals higher affinity. With `O=C(O)CCc1ccccc1Cc1ccccc1-c1nc(C(=O)NCCCCC2CCCCC2)co1`, the IC50 was found to be 110 nM in the assay listed under Homo sapiens [1] and 31 nM in the assay listed under Homo sapiens [2]. This molecule also displayed a Kd at Thromboxane A2 receptor of 19 nM.
For the molecule `O=C(O)Cc1ccccc1Cc1ccccc1-c1nc(C(=O)NCCCCC2CCCCC2)co1`, the IC50 in the assay filed under Homo sapiens [1] was found to be 330000 nM; in the assay filed under Homo sapiens [2] it was 67000 nM.
Taken in the same sequence, the figures for `O=C(O)CCCc1ccccc1Cc1ccccc1-c1nc(C(=O)NCCCCC2CCCCC2)co1` were 630 nM and 58 nM.
In the same order, the values of `O=C(O)Cc1cccc(Cc2ccccc2-c2nc(C(=O)NCCCCC3CCCCC3)co2)c1` are 6000 nM and 2000 nM.
In the same order, the values of `O=C(O)CCc1cccc(Cc2ccccc2-c2nc(C(=O)NCCCCC3CCCCC3)co2)c1` are 2000 nM and 470 nM.

Values taken from ChEMBL document CHEMBL1152043, “Interphenylene phenyl oxazoles: novel, potent thromboxane receptor antagonists” (Bioorg Med Chem Lett, 1992).
